*1 amine or outer side, *2 acyl side, *3 side chain or, on linkers, in order; H or OH if unused. Where a SMILES comes first, the peptide text is derived from it. Bridges are numbered along the chain shown (N, C = ends). TATA = O=C(CC[*:1])N1CN(C(=O)CC[*:2])CN(C(=O)CC[*:3])C1

Chain of TSLP (Q969D9 29-159): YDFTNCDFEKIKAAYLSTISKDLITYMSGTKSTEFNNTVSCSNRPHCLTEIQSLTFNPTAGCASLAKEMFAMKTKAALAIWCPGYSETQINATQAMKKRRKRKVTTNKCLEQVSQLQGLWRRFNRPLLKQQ

This experiment concerns the target TSLP (Homo sapiens, UniProt Q969D9). Kind of experiment: Human TSLP Surface Plasmon Resonance (SPR) binding assay. To be noted: biotinylated human TSLP immobilized on streptavidin chip; 20° C.; steady-state or kinetic 1:1 fit; read-out: hTSLP SPR Kd. Set-up: The resulting construct spCD33-6×HN-TEV-hTSLP(29-159)-Avi; 6xHN tag with TEV site (N, cleaved yes); made in house; host or cells: Expi293F cells.
What is called Kd is the free concentration of one partner at which half of the binding sites on the other are occupied at equilibrium, for simple one-to-one binding. Consider `CC(=O)N[C@H]1CSCCC(=O)N2CN3CN(C2)C(=O)CCSC[C@H](NC(=O)[C@H](CC(=O)O)NC(=O)[C@H](CCC(=O)O)NC(=O)[C@H](CC(C)C)NC(=O)[C@H](Cc2c[nH]c4ccccc24)NC(=O)[C@H](CCC(N)=O)NC1=O)C(=O)N[C@@H](Cc1c[nH]c2ccccc12)C(=O)N[C@@H](CCCNC(=N)N)C(=O)NCC(=O)N[C@@H](Cc1ccc(C(F)(F)F)cc1)C(=O)N[C@H](C(N)=O)CSCCC3=O` [Example 77, Ac-(SEQ ID NO: 58)], for which the Kd is 93 nM.
Regarding `CC(=O)N[C@H]1CSCCC(=O)N2CN3CN(C2)C(=O)CCSC[C@H](NC(=O)[C@H](CC(=O)O)NC(=O)[C@H](CCC(=O)O)NC(=O)[C@H](CC(C)C)NC(=O)[C@H](Cc2c[nH]c4ccccc24)NC(=O)[C@H](CCC(N)=O)NC1=O)C(=O)N[C@@H](Cc1c[nH]c2ccccc12)C(=O)N[C@@H](CCCC[N+](C)(C)C)C(=O)NCC(=O)N[C@@H](Cc1ccccc1)C(=O)N[C@H](C(N)=O)CSCCC3=O` [Example 81, Ac-(SEQ ID NO: 61)], the Kd stood at 100 nM.
As for `CC(C)C[C@@H]1NC(=O)[C@H](Cc2c[nH]c3ccccc23)NC(=O)[C@H](CCC(N)=O)NC(=O)[C@@H](N)CSCCC(=O)N2CN3CN(C2)C(=O)CCSC[C@H](NC(=O)[C@H](CC(=O)O)NC(=O)[C@H](CCC(=O)O)NC1=O)C(=O)N[C@@H](Cc1c[nH]c2ccccc12)C(=O)N[C@@H](CCCNC(N)=O)C(=O)NCC(=O)N[C@@H](Cc1ccccc1)C(=O)N[C@H](C(N)=O)CSCCC3=O` [Example 102, (SEQ ID NO: 76)], the figure is 170 nM.
In the case of `CC(C)C[C@@H]1NC(=O)[C@H](Cc2c[nH]c3ccccc23)NC(=O)[C@H](CC(N)=O)NC(=O)[C@@H](NC(=O)[C@H](C)N)CSCCC(=O)N2CN3CN(C2)C(=O)CCSC[C@H](NC(=O)[C@H](CC(=O)O)NC(=O)[C@H](CCC(=O)O)NC1=O)C(=O)N[C@@H](Cc1c[nH]c2ccccc12)C(=O)N[C@@H](Cc1c[nH]cn1)C(=O)NCC(=O)N[C@@H](Cc1ccccc1)C(=O)N[C@H](C(=O)N[C@@H](Cc1c[nH]cn1)C(=O)N[C@@H](CCC(=O)O)C(=O)N[C@@H](CCC(=O)O)C(N)=O)CSCCC3=O` [Example 125, A-(SEQ ID NO: 89)-HEE] (H-ACNWLEDCWHGFCHEE-NH2; linker 2-8-13 via TATA), the Kd was found to be 300 nM.
For the molecule `CC(C)C[C@@H]1NC(=O)[C@H](Cc2c[nH]c3ccccc23)NC(=O)[C@H](CCC(N)=O)NC(=O)[C@@H](N)CSCCC(=O)N2CN3CN(C2)C(=O)CCSC[C@H](NC(=O)[C@H](CC(=O)O)NC(=O)[C@H](CCC(=O)O)NC1=O)C(=O)N[C@@H](Cc1c[nH]c2ccccc12)C(=O)N[C@@H](CCCNC(=N)N)C(=O)NCC(=O)N[C@@H](Cc1ccccc1)C(=O)N[C@H](C(=O)N[C@@H](CC(=O)O)C(=O)N[C@H](C(=O)N[C@@H](CO)C(=O)N[C@H](C(=O)N[C@@H](Cc1c[nH]cn1)C(=O)N[C@@H](CO)C(N)=O)[C@@H](C)O)[C@@H](C)O)CSCCC3=O` [Example 128, (SEQ ID NO: 38)-DTSTHS] (H-CQWLEDCWRGFCDTSTHS-NH2; linker 1-7-12 via TATA), the Kd stood at 380 nM.
As for `CC(=O)N[C@H]1CSCCC(=O)N2CN3CN(C2)C(=O)CCSC[C@H](NC(=O)[C@H](CC(=O)O)NC(=O)[C@H](CCC(=O)O)NC(=O)[C@H](CC(C)C)NC(=O)[C@H](Cc2c[nH]c4ccccc24)NC(=O)[C@H](CCC(N)=O)NC1=O)C(=O)N[C@@H](Cc1c[nH]c2ccccc12)C(=O)N[C@@H](CCONC(=N)N)C(=O)NCC(=O)N[C@@H](Cc1ccccc1)C(=O)N[C@H](C(N)=O)CSCCC3=O` [Example 131, Ac-(SEQ ID NO: 92)], the Kd amounted to 400 nM.
As to `CC(=O)N[C@H]1CSCCC(=O)N2CN3CN(C2)C(=O)CCSC[C@H](NC(=O)[C@H](CC(=O)O)NC(=O)[C@H](CCC(=O)O)NC(=O)[C@H](CC(C)C)NC(=O)[C@H](Cc2c[nH]c4ccccc24)NC(=O)[C@H](CCC(N)=O)NC1=O)C(=O)N[C@@H](Cc1c[nH]c2ccccc12)C(=O)N[C@@H](CCCNC(=N)N)C(=O)NCC(=O)N[C@@H](Cc1cccs1)C(=O)N[C@H](C(N)=O)CSCCC3=O` [Example 135, Ac-(SEQ ID NO: 96)], the Kd worked out at 490 nM.
As for `CC(C)C[C@@H]1NC(=O)[C@H](Cc2c[nH]c3ccccc23)NC(=O)[C@H](CC(=O)O)NC(=O)[C@@H](NC(=O)[C@H](C)N)CSCCC(=O)N2CN3CN(C2)C(=O)CCSC[C@H](NC(=O)[C@H](CC(=O)O)NC(=O)[C@H](CC(=O)O)NC1=O)C(=O)N[C@@H](Cc1c[nH]c2ccccc12)C(=O)N[C@@H](CCCCN)C(=O)NCC(=O)N[C@@H](Cc1ccccc1)C(=O)N[C@H](C(=O)N[C@@H](C)C(N)=O)CSCCC3=O` [Example 141, A-(SEQ ID NO: 100)-A] (H-ACDWLDDCWKGFCA-NH2; linker 2-8-13 via TATA; N-terminus and C-terminus assumed), the figure is 600 nM; as for `COc1ccc(C[C@@H]2NC(=O)CNC(=O)[C@H](CCCNC(=N)N)NC(=O)[C@H](Cc3c[nH]c4ccccc34)NC(=O)[C@@H]3CSCCC(=O)N4CN(CN(C4)C(=O)CCSC[C@H](NC(C)=O)C(=O)N[C@@H](CCC(N)=O)C(=O)N[C@@H](Cc4c[nH]c5ccccc45)C(=O)N[C@@H](CC(C)C)C(=O)N[C@@H](CCC(=O)O)C(=O)N[C@@H](CC(=O)O)C(=O)N3)C(=O)CCSC[C@@H](C(N)=O)NC2=O)cc1` [Example 142, Ac-(SEQ ID NO: 101)], 710 nM.
For `CC(=O)N[C@H]1CSCCC(=O)N2CN3CN(C2)C(=O)CCSC[C@H](NC(=O)[C@H](CC(=O)O)NC(=O)[C@H](CCC(=O)O)NC(=O)[C@H](CC(C)C)NC(=O)[C@H](Cc2c[nH]c4ccccc24)NC(=O)[C@H](CCC(N)=O)NC1=O)C(=O)N[C@@H](Cc1c[nH]c2ccccc12)C(=O)N[C@@H](CCCNC(=N)N)C(=O)NCC(=O)N[C@@H](Cc1cccc(Br)c1)C(=O)N[C@H](C(N)=O)CSCCC3=O` [Example 143, Ac-(SEQ ID NO: 102)] the value was 750 nM.
Consider `CC(=O)N[C@H]1CSCCC(=O)N2CN3CN(C2)C(=O)CCSC[C@H](NC(=O)[C@H](CC(=O)O)NC(=O)[C@H](CCC(=O)O)NC(=O)[C@H](CC(C)C)NC(=O)[C@H](Cc2c[nH]c4ccccc24)NC(=O)[C@H](CCC(N)=O)NC1=O)C(=O)N[C@@H](Cc1c[nH]c2ccccc12)C(=O)N[C@@H](CCCNC(=N)N)C(=O)NCC(=O)N[C@@H](Cc1ccccn1)C(=O)N[C@H](C(N)=O)CSCCC3=O` [Example 146, Ac-(SEQ ID NO: 105)], for which the Kd was 910 nM.
With `CC(=O)N[C@H]1CSCCC(=O)N2CN3CN(C2)C(=O)CCSC[C@H](NC(=O)[C@H](CC(=O)O)NC(=O)[C@H](CCC(=O)O)NC(=O)[C@H](CC[S+](C)[O-])NC(=O)[C@H](Cc2c[nH]c4ccccc24)NC(=O)[C@H](CCC(N)=O)NC1=O)C(=O)N[C@@H](Cc1c[nH]c2ccccc12)C(=O)N[C@@H](CCCNC(=N)N)C(=O)NCC(=O)N[C@@H](Cc1ccccc1)C(=O)N[C@H](C(N)=O)CSCCC3=O` (stereo partly drawn) [Example 147, Ac-(SEQ ID NO: 106)], the Kd is 940 nM.
For the molecule `CC(=O)N[C@H]1CSCCC(=O)N2CN3CN(C2)C(=O)CCSC[C@H](NC(=O)[C@H](CC(=O)O)NC(=O)[C@H](CCC(=O)O)NC(=O)[C@H](CC(C)C)NC(=O)[C@H](Cc2c[nH]c4ccccc24)NC(=O)[C@H](CCC(N)=O)NC1=O)C(=O)N[C@@H](Cc1c[nH]c2ccccc12)C(=O)N[C@@H](CCCNC(=N)N)C(=O)NCC(=O)N[C@@H](CCc1ccccc1)C(=O)N[C@H](C(N)=O)CSCCC3=O` [Example 148, Ac-(SEQ ID NO: 107)], the equilibrium dissociation constant (Kd) is 1100 nM.
`CC(=O)N[C@H]1CSCCC(=O)N2CN3CN(C2)C(=O)CCSC[C@H](NC(=O)[C@H](CC(=O)O)NC(=O)[C@H](CCC(=O)O)NC(=O)[C@H](CC(C)C)NC(=O)[C@H](Cc2c[nH]c4ccccc24)NC(=O)[C@H](CCC(N)=O)NC1=O)C(=O)N[C@@H](Cc1c[nH]c2ccccc12)C(=O)N[C@@H](C)C(=O)NCC(=O)N[C@@H](Cc1ccccc1)C(=O)N[C@H](C(N)=O)CSCCC3=O` [Example 149, Ac-(SEQ ID NO: 108)]: the Kd stood at 1100 nM.
As for `CC[C@H](C)[C@@H]1NC(=O)[C@H]([C@@H](C)O)NC(=O)[C@@H](NC(=O)[C@H](C)N)CSCCC(=O)N2CN3CN(C2)C(=O)CCSC[C@H](NC(=O)[C@H](CC(=O)O)NC(=O)[C@H](CCC(=O)O)NC(=O)[C@H](CC(C)C)NC1=O)C(=O)N[C@@H](Cc1c[nH]c2ccccc12)C(=O)N[C@@H](CCSC)C(=O)NCC(=O)N[C@@H](Cc1ccccc1)C(=O)N[C@H](C(=O)N[C@@H](C)C(N)=O)CSCCC3=O` [Example 150, A-(SEQ ID NO: 109)-A], the figure is 1500 nM.
With `CC(=O)N[C@H]1CSCCC(=O)N2CN3CN(C2)C(=O)CCSC[C@H](NC(=O)[C@H](CC(=O)O)NC(=O)[C@H](CCC(=O)O)NC(=O)[C@H](CC(C)C)NC(=O)[C@H](Cc2c[nH]c4ccccc24)NC(=O)[C@H](CCC(N)=O)NC1=O)C(=O)N[C@@H](Cc1c[nH]c2ccccc12)C(=O)N[C@@H](CCCNC(=N)N)C(=O)NCC(=O)N[C@@H](Cc1c(F)c(F)c(F)c(F)c1F)C(=O)N[C@H](C(N)=O)CSCCC3=O` [Example 153, Ac-(SEQ ID NO: 112)], the Kd was found to be 2700 nM.
As for `CC(=O)N[C@H]1CSCCC(=O)N2CN3CN(C2)C(=O)CCSC[C@H](NC(=O)[C@H](CC(=O)O)NC(=O)[C@H](CCC(=O)O)NC(=O)[C@H](CC(C)C)NC(=O)[C@H](Cc2c[nH]c4ccccc24)NC(=O)[C@H](CCC(N)=O)NC1=O)C(=O)N[C@@H](Cc1c[nH]c2ccccc12)C(=O)N[C@@H](CN)C(=O)NCC(=O)N[C@@H](Cc1ccccc1)C(=O)N[C@H](C(N)=O)CSCCC3=O` [Example 155, Ac-(SEQ ID NO: 114)], the Kd came to 3200 nM.
Take `CC(C)C[C@@H]1NC(=O)[C@H](Cc2c[nH]c3ccccc23)NC(=O)[C@H](CCC(N)=O)NC(=O)[C@@H](N)CSCCC(=O)N2CN3CN(C2)C(=O)CCSC[C@H](NC(=O)[C@H](CC(=O)O)NC(=O)[C@H](CCC(=O)O)NC1=O)C(=O)N[C@@H](Cc1c[nH]c2ccccc12)C(=O)N[C@@H](CN)C(=O)NCC(=O)N[C@@H](Cc1ccccc1)C(=O)N[C@H](C(N)=O)CSCCC3=O` [Example 156, (SEQ ID NO: 114)]: the equilibrium dissociation constant (Kd) was found to be 3300 nM.
